Results reported in US10857113B2, “Bezafibrate for the treatment of cancer” (Cipla Limited, priority 2016, dated 2020).
Like-named read-outs stand apart in the source and are kept apart here.

Legend:
[1] = test system: A498 cells; experiment: In vivo animal efficacy study, subcutaneous tumor fragment xenograft; set-up: species or system female athymic nude mice; details: sunitinib 20 mg/kg, bezafibrate 150 mg/kg, p.o. q.d. × 21
Procedure: Healthy 10 female athymic nude mice were recruited for the donor cell inoculation. Animals were subcutaneously injected at flank region with 10 million A498 cells suspended in 200 μl of media and matrigel. Animals were monitored for solid tumor growth. […] Tumors were fragmented in to ˜30 mg size. […] [table] The tumor sizes were measured weekly twice from the date of tumor appearance till the end of the experiment. Tumor size was measured by digital vernier caliper (MITUTOYO) by measuring length (L=longest axis) and width (W=shortest axis). Tumor Volume (V) was calculated using formula: […] Mean tumor volume and % tumor growth inhibition (% TGI) were then calculated (SEM=standard error of mean).

[2] = background statement; cited from earlier work
[3] = test system: human tumor cell models for RCC; experiment: In vitro 3D clonogenic assay, all tumor models; type: cell-based; details: 3D model, geometric mean over 10 tumor models
Procedure: Cell lines were routinely passaged one or twice weekly. All cells were grown at 37° C. in a humidified atmosphere with 5% CO2 in RPMI 1640 medium (Biochrom) supplemented with 10% (v/v) fetal calf serum and 0.1 mg/mL gentamicin. The percentage of viable cells was determined in a Neubauer-hemocytometer using trypan blue exclusion.
Tumor xenografts (patient-derived, as well as cell line-derived xenografts) were passaged as subcutaneous xenografts in NMRI nu/nu mice. At a tumor volume of 400-1,000 mm^3 tumor-bearing mice were sacrificed and tumors were collected under sterile conditions without delay according to the relevant Oncotest SOPs and the relevant animal welfare guidelines published by the FELASA and the GV-SOLAS. Tumors were mechanically disaggregated and subsequently incubated with an enzyme cocktail consisting of collagenase type IV (41 U/mL), DNase I (125 U/mL), hyaluronidase type III (100 U/mL), and dispase II (1.0 U/mL) in RPMI 1640 medium (Life Technologies) at 37° C. for 60-120 minutes. […] The percentage of viable cells was determined in a Neubauer-hemocytometer using trypan blue exclusion. […]
The clonogenic assay was carried out in a 96 well plate format using ultra low attachment plates. […] Cultures were incubated at 37° C. and 7.5% CO2 in a humidified atmosphere for 8 to 13 days and monitored closely for colony growth using an inverted microscope. […]

[4] = test system: RXF 1220L; experiment: In vitro 2D assay (CellTiter-Blue); type: cell-based; details: Homo sapiens, 2D model
Excerpt: (§1) Cell lines RXF 1183L, RXF 1220L, RXF 1781L, RXF 393L and RXF 486L were established at Oncotest from the corresponding human patient-derived xenograft. The cell lines 786-O, A-498, Caki-1 and SN12C were purchased from NCI (National Cancer Institute, Bethesda, Md., USA). ACHN was purchased from ECACC (European Collection of Cell Cultures, Salisbury, UK). Authenticity of cell lines was confirmed at the DSMZ by STR (short tandem repeat) analysis, a PCR based DNA-fingerprinting methodology.
(§2) Cell lines were routinely passaged once or twice weekly and maintained in culture for up to 20 passages. All cells were grown at 37° C. in a humidified atmosphere with 5% CO2 in RPMI 1640 medium (25 mM HEPES, with L-glutamine, # FG1385, Biochrom, Berlin, Germany) supplemented with 10% (v/v) fetal calf serum (Sigma, Taufkirchen, Germany) and 0.1 mg/mL gentamicin (Life Technologies, Karlsruhe, Germany).
(§3) Bezafibrate was dissolved at a concentration of 100 mM in 100% Methanol and next 1:5 diluted with cell culture media (20 mM, 20% Methanol). Starting with this solution, serial dilutions (1:1.6) were prepared with cell culture medium. Next, 150 μL of the serial dilutions were transferred to the assay plates upon removing the cell culture media of each well (complete change of medium on assay plates). Thus the final test concentrations were 10,240, 6,400, 4,000, 2,500, 1,563, 977, 610, and 381 μM. The maximum methanol concentrations were 6% and 10%. No precipitation was observed.
(§4) Cells were harvested from exponential phase cultures, counted and plated in 96-well flat-bottom microtiter plates at a cell density of 4,000-12,000 cells/well depending on the cell line's growth rate. After a 24 hour recovery period to allow the cells to resume exponential growth, test compounds were added. Compounds were applied at 8 to 10 concentrations in duplicate and treatment continued for 96 hour. After 96 hour treatment of cells, 20 μL/well CellTiter-Blue® reagent was added. Following an incubation period of up to four hours, fluorescence (FU) was measured by using the Enspire Multimode Plate Reader (excitation λ=531 nm, emission λ=615 nm).
(§5) For calculations, the mean values of duplicate/quadruplicate (untreated control) data were used. Sigmoidal concentration-response curves were fitted to the data points (T/C values) obtained for each cell line using 4 parameter non-linear curve fit.

[5] = test system: RXF 1183L; experiment: In vitro 2D assay (CellTiter-Blue); type: cell-based; details: Homo sapiens, 2D model, 96 hour treatment
Excerpt: as §1, §2, §3, §4, §5

[6] = test system: RXF 393L; experiment: In vitro 2D assay (CellTiter-Blue); type: cell-based; details: Homo sapiens, 2D model, 96 hour treatment
Excerpt: as §1, §2, §3, §4, §5

[7] = test system: SN12C; experiment: In vitro 2D assay (CellTiter-Blue); type: cell-based; details: Homo sapiens, 2D model, 96 hour treatment
Excerpt: as §1, §2, §3, §4, §5

[8] = test system: A-498; experiment: In vitro 2D assay (CellTiter-Blue); type: cell-based; details: Homo sapiens, A498, 2D model, 96 hour treatment
Excerpt: as §1, §2, §3, §4, §5

[9] = test system: Caki-1; experiment: In vitro 2D assay (CellTiter-Blue); type: cell-based; details: Homo sapiens, 2D model, 96 hour treatment
Excerpt: as §1, §2, §3, §4, §5

[10] = test system: RXF 486L; experiment: In vitro 2D assay (CellTiter-Blue); type: cell-based; details: Homo sapiens, 2D model, 96 hour treatment
Excerpt: as §1, §2, §3, §4, §5

[11] = test system: ACHN; experiment: In vitro 2D assay (CellTiter-Blue); type: cell-based; details: Homo sapiens, 2D model
Excerpt: as §1, §2, §3, §4, §5

[12] = test system: 786-O; experiment: In vitro 2D assay (CellTiter-Blue); type: cell-based; details: Homo sapiens, 786-0, 2D model, 96 hour treatment
Excerpt: as §1, §2, §3, §4, §5

[13] = test system: RXF 1781L; experiment: In vitro 2D assay (CellTiter-Blue); type: cell-based; details: Homo sapiens, 2D model, 96 hour treatment
Excerpt: as §1, §2, §3, §4, §5

[14] = 96 hour treatment, second run 381 to 10,240 μM, read-out: Absolute IC50
[15] = 96 hour treatment, read-out: Relative IC50
[16] = first run 93 to 4,000 μM, read-out: IC50
[17] = second run 381 to 10,240 μM, read-out: Absolute IC50

CC(C)(Oc1ccc(CCNC(=O)c2ccc(Cl)cc2)cc1)C(=O)O [Bezafibrate]
Tumor Volume, Mean ([1]; Day 13): 463.30 mm^3 | Tumor Growth Inhibition ([1]; Day 16): 26.18% | Tumor Volume, Mean ([1]; Day 16): 709.65 mm^3 | Tumor Growth Inhibition ([1]; Day 20): 31.59% | Tumor Volume, Mean ([1]; Day 20): 875.99 mm^3 | Anti-tumor efficacy / effect in inhibiting tumor growth (in words) [1]: shows anti-tumor efficacy | Reduction of low-density lipoprotein cholesterol (LDL-C) [2]: 15-20% | Reduction of triglycerides [2]: 30-50% | IC50 ([3]; read-out: Geometric mean absolute IC50): 945 µM | IC50 ([3]; read-out: Geometric mean relative IC50): 985 µM | IC50 [4, 14]: 1930 µM | IC50 [4, 15]: 2110 µM | IC50 [4, 16]: 3410 µM | IC50 [5, 17]: 960 µM | IC50 ([5]; read-out: Relative IC50): 1060 µM | IC50 [6, 17]: 1040 µM | IC50 ([6]; read-out: Relative IC50): 1640 µM | IC50 ([7]; read-out: Relative IC50): 1210 µM | IC50 [7, 17]: 966 µM | IC50 [8, 17]: 2120 µM | IC50 ([8]; read-out: Relative IC50): 2280 µM | IC50 ([9]; read-out: Relative IC50): 1400 µM | IC50 [9, 17]: 1230 µM | IC50 ([10]; read-out: Relative IC50): 1330 µM | IC50 [10, 17]: 987 µM | IC50 [11, 15]: 1130 µM | IC50 [11, 14]: 1050 µM | IC50 [11, 16]: 1070 µM | IC50 [12, 17]: 795 µM | IC50 ([12]; read-out: Relative IC50): 1070 µM | IC50 ([13]; read-out: Relative IC50): 1950 µM | IC50 [13, 17]: 1860 µM
